Results from paper PMC10892041, “Vanadium Complexes with Thioanilide Derivatives of Amino Acids: Inhibition of Human Phosphatases and Specificity in Various Cell Models of Metabolic Disturbances” (Pharmaceuticals, 2024).

Assays:
[1] = target: T1, PTP1B (Homo sapiens, UniProt P18031); assay: Inhibition of human recombinant tyrosine phosphatase PTP1B (DiFMUP fluorescence); format: biochemical; conditions: 1 µM; control solvent only; SD did not exceed 6%
T1 construct: purchased Sigma-Aldrich
T1 sequence (P18031 1-435): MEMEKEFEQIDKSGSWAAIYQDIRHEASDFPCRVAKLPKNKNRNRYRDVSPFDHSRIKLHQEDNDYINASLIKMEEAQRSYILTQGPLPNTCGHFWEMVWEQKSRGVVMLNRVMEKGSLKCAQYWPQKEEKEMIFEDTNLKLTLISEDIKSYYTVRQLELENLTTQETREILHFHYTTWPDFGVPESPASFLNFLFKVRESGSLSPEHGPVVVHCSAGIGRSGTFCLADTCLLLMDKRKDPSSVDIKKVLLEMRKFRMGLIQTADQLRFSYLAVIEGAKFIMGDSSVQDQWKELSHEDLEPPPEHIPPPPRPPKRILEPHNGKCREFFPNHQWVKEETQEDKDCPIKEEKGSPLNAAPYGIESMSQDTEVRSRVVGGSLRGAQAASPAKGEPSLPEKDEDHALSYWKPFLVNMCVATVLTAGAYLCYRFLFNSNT
Description: (§1) To determine the ability of the tested compounds for inhibition tyrosine phosphatases, human recombinant proteins were used (Sigma-Aldrich). The reactions were performed in black opaque 384-well microplates (PerkinElmer, Waltham, MA, USA). An equal volume of phosphatase solution in a reaction buffer (25 mM of 3-(N-morpholino)propanesulfonic acid (MOPS), 50 mM NaCl, 1 mM dithiothreitol (DTT), and 0.05% Tween-20 (pH 7.0)) was added to the solution of the tested compound on microplate. These solutions were dispensed using an automated injector. The following final concentrations of the tested phosphatases were used: PTP1B 50 ng/mL, SHP1 400 ng/mL, SHP2 50 ng/mL, LAR 5 ng/mL, and PTPRA 100 ng/mL. After 10 min, a solution of phosphate 6,8-difluoro-4-methyl (DiFMUP; Thermo Fisher Scientific) was added until its final concentration was 0.1 mM. Samples were incubated for 20 miN at 23 °C, and then the measurements of fluorescence intensity (excitation 355 and emission […]) were performed on a multifunctional plate reader POLARstar Omega (BMG Labtech, Ortenberg, Germany). Assays were performed in triplicate. For the screening assays, the final concentration of the tested compounds was 1 µM. The results were expressed as percent inhibition of untreated control (enzyme with vehicle only) for the screening tests. […] IC50 were calculated using GraphPad Prism version 6.0 software (GraphPad Software, Boston, MA, USA).

[2] = target: T2, LAR (Homo sapiens, UniProt P10586); assay: Inhibition of human recombinant tyrosine phosphatase LAR (DiFMUP fluorescence); format: biochemical; conditions: 1 µM; control solvent only; SD did not exceed 6%
T2 sequence (P10586 1352-1607 limits assumed): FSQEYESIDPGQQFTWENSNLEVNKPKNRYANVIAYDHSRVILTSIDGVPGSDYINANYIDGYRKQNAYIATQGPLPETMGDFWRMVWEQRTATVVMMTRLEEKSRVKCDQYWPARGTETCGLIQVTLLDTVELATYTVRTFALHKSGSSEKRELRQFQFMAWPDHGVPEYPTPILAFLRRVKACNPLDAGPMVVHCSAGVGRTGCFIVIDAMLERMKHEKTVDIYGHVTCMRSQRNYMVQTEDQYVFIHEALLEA
Description: as §1

[3] = target: T3, SHP1 (Homo sapiens, UniProt P29350); assay: Inhibition of human recombinant tyrosine phosphatase SHP1 (DiFMUP fluorescence); format: biochemical; conditions: 1 µM; control solvent only; SD did not exceed 6%
T3 construct: purchased Sigma-Aldrich
Description: as §1

[4] = target: T4, SHP2 (Homo sapiens, UniProt Q06124); assay: Inhibition of human recombinant tyrosine phosphatase SHP2 (DiFMUP fluorescence); format: biochemical; conditions: 1 µM; control solvent only; SD did not exceed 6%
T4 construct: purchased Sigma-Aldrich
T4 sequence (Q06124 1-593): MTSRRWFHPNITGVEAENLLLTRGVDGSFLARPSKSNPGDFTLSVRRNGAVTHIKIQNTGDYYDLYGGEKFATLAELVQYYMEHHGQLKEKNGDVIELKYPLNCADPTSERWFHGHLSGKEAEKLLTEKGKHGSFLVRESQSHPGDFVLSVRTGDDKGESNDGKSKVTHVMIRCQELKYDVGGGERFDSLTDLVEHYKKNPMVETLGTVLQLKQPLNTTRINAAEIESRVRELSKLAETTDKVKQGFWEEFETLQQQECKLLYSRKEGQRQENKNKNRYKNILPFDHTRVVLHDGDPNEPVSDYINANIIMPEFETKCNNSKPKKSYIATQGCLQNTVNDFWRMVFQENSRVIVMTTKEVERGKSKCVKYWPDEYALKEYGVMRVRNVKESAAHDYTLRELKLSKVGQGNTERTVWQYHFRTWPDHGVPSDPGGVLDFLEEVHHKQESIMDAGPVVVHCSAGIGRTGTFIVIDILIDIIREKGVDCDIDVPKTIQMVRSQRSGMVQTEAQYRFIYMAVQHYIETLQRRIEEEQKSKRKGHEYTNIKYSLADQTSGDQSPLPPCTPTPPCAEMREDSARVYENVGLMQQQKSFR
Description: as §1

[5] = system: adipocytes 3T3-L1; assay: Scintillation proximity assay, transport of [14C]-deoxy-D-glucose into adipocytes 3T3-L1; format: cell-based, mouse; conditions: 50 µM
Description: Adipocytes 3T3-L1 cell line (ATCC CRL-11605) derived from fibroblasts from mouse embryo tissue were cultured according to standard protocol in DMEM medium supplemented with 10% bovine calf serum, 100 IU/mL penicillin, and […] streptomycin at 37 °C in 5% CO2. Cells were seeded in 96-well poly-D-lysine-coated plates and cultured to reach confluency.
(§2) Scintillation proximity assay (SPA) is a method to measure the real-time accumulation of radiolabeled substrates by adherent cells with no filtration needed. Radioactivity concentrated closer to the scintillator embedded in the plastic bottom of each well provides a stronger signal than the radiolabeled substrate in the culture medium. Uptake of radiolabeled 2-deoxy-D-[U-14C]-glucose was conducted based on previous descriptions.
Adipocytes were washed and the medium was changed to the basal medium. After 24 h incubation, the tested complexes were added. After 2 h incubation at 37 °C in 5% CO2, the medium was changed to DMEM medium without glucose, with 0.1% BSA free from fatty acid, […] L-glutamine, and […] pyruvate. The tested complexes were added again, and further incubation for 4 h was conducted.
(§3) For cells proceeded as above, 2-deoxy-D-[U-14C]-glucose (250–350 mCi/mmol, NEC720A, PerkinElmer) solution in KRB with a total activity of 0.03 mCi was added to each well. […] Non-specific radioactivity was subtracted from each result (cpm). Two independent experiments with triplicates were conducted.

[6] = system: myocytes C2C12; assay: Scintillation proximity assay, transport of [14C]-deoxy-D-glucose into myocytes C2C12; format: cell-based, mouse
Description: (§4) The myocyte C2C12 cell line (ATCC CRL-1772), a subclone of myoblasts from mouse muscles, was cultured according to standard protocol in DMEM supplemented with 10% fetal calf serum, 100 IU/ml penicillin, and […] streptomycin at 37 °C in 5% CO2. Cells were pleated on a 96-well microplate and after reach confluence were differentiated in medium with 2% horse serum. Differentiation medium was changed every 72 h.
as §2
After 24 h incubation, the tested complexes were added. After 2 h incubation at 37 °C in 5% CO2, the medium was changed to low-glucose medium (1000 mg/L), and the tested complexes were added again, with further incubation for 4 h being conducted.
as §3

[7] = system: myocytes C2C12; assay: Glucose consumption (utilization) by myocytes C2C12; format: cell-based, mouse; conditions: 50 µM (highest tested concentration); 24 h
Description: as §4
Differentiated myocytes C2C12 were used after 8 days of differentiation. The culture medium was changed for medium with 0.2% bovine serum albumin, 100 IU/mL penicillin, and 100 µg/mL streptomycin, and after 2 hours of incubation, the medium was changed to fresh medium containing the tested compounds. […]
Glucose concentration was determined based on enzymatic reaction with glucose oxidase and fluorometrically detection reaction end product using an AmplexRed Glucose/Glucose Oxidase Kit (Thermo Fisher Scientific) according to the manufacturer’s protocol. […] Fluorescence signal was measured at excitation of 530 nm and emission of 580 nm using a multimodal microplate reader POLARStar Omega (BMG Labtech), and glucose concentration in samples was calculated in MARS Data Analysis Software version 3.02.R2 (BMG Labtech) based on glucose standards. […] The final results were expressed as the percent of controls containing cells and solvent only.

T3 sequence (P29350 whole entry): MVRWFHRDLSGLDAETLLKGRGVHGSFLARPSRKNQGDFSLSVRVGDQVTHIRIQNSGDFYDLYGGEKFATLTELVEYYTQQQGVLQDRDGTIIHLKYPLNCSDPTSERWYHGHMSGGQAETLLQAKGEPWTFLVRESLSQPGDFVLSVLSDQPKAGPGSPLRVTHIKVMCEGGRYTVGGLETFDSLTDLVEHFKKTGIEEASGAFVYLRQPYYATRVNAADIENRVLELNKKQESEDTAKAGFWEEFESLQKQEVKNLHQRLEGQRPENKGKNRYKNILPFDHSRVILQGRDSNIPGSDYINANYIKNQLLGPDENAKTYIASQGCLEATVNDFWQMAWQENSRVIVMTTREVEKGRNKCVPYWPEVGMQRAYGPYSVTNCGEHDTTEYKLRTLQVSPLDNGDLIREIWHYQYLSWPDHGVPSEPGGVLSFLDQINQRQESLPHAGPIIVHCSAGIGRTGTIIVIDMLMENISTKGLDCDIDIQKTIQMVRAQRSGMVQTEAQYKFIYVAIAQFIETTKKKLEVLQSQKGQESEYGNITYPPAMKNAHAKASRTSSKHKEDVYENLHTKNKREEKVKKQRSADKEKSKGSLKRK

Structure (SMILES) | Inhibition of PTP1B, percentage of inhibition of the control [1] [%] | Inhibition of LAR, percentage of inhibition of the control [2] [%] | Inhibition of SHP1, percentage of inhibition of the control [3] [%] | Inhibition of SHP2, percentage of inhibition of the control [4] [%] | Transport of [14C]-deoxy-D-glucose into 3T3-L1 adipocytes, % of control [5] | Transport of [14C]-deoxy-D-glucose into C2C12 myocytes, % of the control ([6]; 50 µM, control solvent only) | Transport of [14C]-deoxy-D-glucose into C2C12 myocytes ([6]; 10 and 1 µM) | Glucose consumption by myocytes C2C12, % of the control [7]
O.[O]=[V]1[O]C(c2ccccc2O)=NN=Cc2cc(Br)ccc2[O]1.c1cnc2c(c1)ccc1cccnc12 [VC013, [VO(L6)(phen)]⋅H2O] | 60 | 66 | 67 | 74 | statistically significant activity | – | – | –
O.O=C(NN=Cc1cc(Br)ccc1[O][V]1[O]C(c2ccccc2)=NN=Cc2cc(Br)ccc2[O]1)c1ccccc1 [VC032, [V(L8)(HL8)]⋅H2O] | 9 | 8 | 44 | 48 | – | 266 ± 36 % of control | significant effects | No statistically significant effect
